Test results as given in patent US20150094225A1, “METHOD OF OBTAINING INFORMATION FOR IDENTIFYING TUMOR CELL UNDERGOING EPITHELIAL-MESENCHYMAL TRANSITION IN SAMPLE, METHOD OF IDENTIFYING TUMOR CELL UNDERGOING EPITHELIAL-MESENCHYMAL TRANSITION IN SAMPLE, METHOD OF DIAGNOSING SUBJECT HAVING TUMOR CELL UNDERGOING EPITHELIAL-MESENCHYMAL TRANSITION AND …” (Samsung Electronics Co., Ltd., priority 2013, published 2015).
Where two headings read alike, the source gives them in different places.

Key:
Format in all cases: cell-based
[1] = system: breast cancer cells (MCF7); test: RT-PCR of EMT-induced MCF7 cells cultured in medium including TSA, SB or CoCl2; settings: for expression of EpCAM / expression of Twist / expression of snail: 0.5 μM TSA or 2.5 mM SB
[2] = system: lung cancer cells (NCI-1650); test: RT-PCR of EMT-induced NCI-1650 cells cultured in TSA-containing medium; settings: NCI-1650, RT-PCR, 0.5 μM TSA, one day
[3] = system: breast cancer cells (MCF7); test: western blotting of EMT-induced MCF7 cells cultured in TSA- or CoCl2-containing medium
[4] = system: lung cancer cells (NCI-1650); test: western blotting of EMT-induced NCI-1650 cells cultured in TSA-containing medium; settings: NCI-1650, western blotting, 0.5 μM TSA, one day
[5] = system: prostate cancer cells (Du145); test: western blotting and RT-PCR of EMT-induced DU145 cells cultured in medium including TSA, SB or CoCl2
[6] = MCF7, RT-PCR, 0.5 μM TSA or 400 μM CoCl2, one day
[7] = MCF7, RT-PCR, 0.5 μM TSA, 2.5 mM SB or 400 μM CoCl2, one day
[8] = MCF7, western blotting (FIG. 15: western/RT-PCR not told apart), 0.5 μM TSA or 400 μM CoCl2, one day
[9] = DU145, western blotting/RT-PCR, 0.5 μM TSA, 2.5 mM SB or 400 μM CoCl2, one day

CC(/C=C/C(=O)NO)=C\[C@@H](C)C(=O)c1ccc(N(C)C)cc1 [TSA, Trichostatin A]
expression of ACACA [1, 6]: increased
expression of PPARγ [1, 6]: decreased
expression of SCD1 [1, 6]: increased
expression of EpCAM ([1]; MCF7, RT-PCR, one day): decreased
expression of Twist ([1]; MCF7, RT-PCR, one day): increased
expression of snail ([1]; MCF7, RT-PCR, one day): increased
expression of ACOT1 [1, 7]: decreased
expression of PTPLB [1, 7]: decreased
expression of N-cadherin ([1]; MCF7, RT-PCR, 0.5 μM TSA, one day): increased
expression of ACOT1 [2]: decreased
expression of PTPLB [2]: decreased
expression of SCD1 [2]: increased
expression of N-cadherein [3, 8]: gradually increased
expression of snail [3, 8]: gradually increased
expression of E-cadherin ([3]; MCF7, western blotting, 0.5 μM TSA, cultured one day): decreased
expression of N-cadherein [4]: gradually increased
expression of Vimentin [4]: gradually increased
expression of snail [4]: gradually increased
expression of ACOT1 [5, 9]: decreased
expression of EpCAM [5, 9]: increased
expression of PTPLB [5, 9]: decreased
expression of SCD1 [5, 9]: increased
expression of snail [5, 9]: increased

[Cl-].[Cl-].[Co+2] [CoCl2]
expression of ACACA [1]: decreased
expression of ACOT1 [1]: decreased
expression of FASN [1]: decreased
expression of PPARγ [1]: decreased
expression of PTPLB [1]: decreased
expression of SCD1 [1]: increased
expression of HIF-1α [3]: gradually increased
expression of N-cadherein [3]: gradually increased
expression of snail [3]: gradually increased
expression of ACOT1 [5]: decreased
expression of EpCAM [5]: increased
expression of PTPLB [5]: decreased
expression of SCD1 [5]: increased
expression of snail [5]: increased

CCCC(=O)[O-].[Na+] [SB, sodium butyrate]
expression of EpCAM ([1]; MCF7, RT-PCR, one day): decreased
expression of Twist ([1]; MCF7, RT-PCR, one day): increased
expression of snail ([1]; MCF7, RT-PCR, one day): increased
expression of ACOT1 [1, 7]: decreased
expression of PTPLB [1, 7]: decreased
expression of ACOT1 [5, 9]: decreased
expression of EpCAM [5, 9]: increased
expression of PTPLB [5, 9]: decreased
expression of SCD1 [5, 9]: increased
expression of snail [5, 9]: increased
